Source: patent publication US12115182B2, “Adenosine A2A agonists for the treatment of cytokine storm syndrome” (priority 2021, dated 2024)

What was measured:
[1] = tested on: plasma cytokines/chemokines; assay: Plasma cytokines/chemokines in lung transplant recipients (11-plex); type: in vivo, human
Description: Blood was drawn for cytokine/chemokine, damage associated molecular patterns (DAMPs) at the following different timepoints: 1) before infusion (baseline), 2) 15 minutes before reperfusion of the 1st lung, 3) 30 minutes after reperfusion of 1st lung, 4) 30 minutes after reperfusion of 2nd lung, and 5) 6 hours after reperfusion of 1st lung.
The cytokines/chemokines, HMGB1 and sRAGE were determined at The University of Virginia Flow Cytometry Core (RRID: SCR 017829) as previously described (LAU et al., J Heart Lung Transplant, (2020), 39:563-570). The customized 11-plex cytokine panel detects IL-1, IL-2, IL-6, IL-7, IL-8, IL-10, IL-12P40, IL-12P70, IL-17, TNFa, and IFN-γ (Millipore Sigma, Burlington, MA).
Statistical differences of cytokine/chemokines, heart rates and blood pressures between groups were determined by two-way ANOVA followed by Tukey's multiple comparison test (GraphPad Prism 9.0). The PGD scores were analyzed by chi-squared test. The intubation times and hospital LOS, ICU LOS were analyzed by ANOVA of log and Kruskal-Wallis. Data was reported as means±SD. P value equal or less than 0.05 was considered significant.

[2] = Plasma levels of regadenoson in COVID-19 patients (LC-MS); type: in vivo, human; details: loading dose then 1.44 μg/kg/hr for 6 hours
Description: In cohort 1 of this trial, we tested the safety, tolerability, and toxicity of regadenoson in 5 COVID-19 patients (WHO stages 4-5) receiving supplemental oxygen without mechanical ventilation. All subjects received an infused loading dose of 5.0 μg/kg up to a maximum of 400 μg over 30 minutes, followed by a maintenance dose of 1.44 μg/kg/hr for 6 hours. Toxicity of regadenoson was graded by using Common Terminology for Adverse Events Criteria. Vital signs, pulse oximetry, arterial blood gas, laboratory studies, and electrocardiograms were performed on a schedule commensurate with level of care to identify potential risk of the study drug during and 12 hours post infusion. The trial was monitored by an NIH designated DSMB. Peripheral blood samples were collected at 4 timepoints. Along with clinical monitoring, plasma levels of cytokines (14-plex Luminex panel) were measured at various time points. Cytokine data were analyzed by SAS 9.5 PROC MIXED. Activation of peripheral blood mononuclear cells including iNKT cells was analyzed by flow cytometry. Flow cytometry data were analyzed by FCS Express 7 Research edition and GraphPad Prism v9. The plasma levels of regadenoson were determined via liquid chromatography-mass spectrometry.

[3] = cited from earlier work

In the case of `CNC(=O)c1cnn(-c2nc(N)c3ncn([C@@H]4O[C@H](CO)[C@@H](O)[C@H]4O)c3n2)c1` [Regadenoson], the “transplant-induced elevation of TNF-α” value ([1]; 30 minutes after reperfusion of 1st lung, low dose p=0.071, high dose p=0.154) is reported as “trended toward reducing”, the “transplantation-induced plasma levels of IL-6” value ([1]; 30 minutes after reperfusion of 2nd lung, low dose p=0.041, high dose p=0.007 vs control) is reported as “significantly inhibited” and the “plasma IL-10” value ([1]; low dose infusion, p=0.078) is reported as “trended toward increasing”. For the same molecule, the “plasma levels of IL-8” value ([1]; low dose, 30 minutes after reperfusion of 2nd lung, p=0.032) was “significantly reduced”, the “median peak plasma levels of regadenoson” value [2] was 14.24 ng/mL and the “peak plasma levels of regadenoson, range” value [2] was 3.64 to 78.64 ng/mL. For the same molecule, the peak plasma level ([3]; 400 μg bolus over 10 seconds for myocardial perfusion imaging) was “about 15 ng/ml”, the steady-state plasma level ([3]; after infusion for 6 hours of 1.44 μg/kg/h, prior sickle cell disease trial) was “about 2 ng/ml” and the terminal half-life ([3]; in vivo) was 2 h. For the same molecule, the “safety / side effects” value ([3]; infusion at 1.44 μg/kg/h for 24-48 h, sickle cell crisis and lung transplantation) was “safe and devoid of side effects”.
